Test results taken from patent US11471414B2, “Compositions and methods for the treatment and prophylaxis of surgical site infections” (Polypid Ltd., priority 2014, dated 2022).

Test system: Staphylococcus aureus (ATCC 29213) preformed biofilm
Test: MBEC Physiology and Genetics Assay, eradication of an established biofilm
Format: cell-based
Method: The effectiveness of tri-calcium phosphate granules coated with a matrix composition according to embodiments of the invention in eradicating established biofilm was measured using the MBEC™ (Minimum Biofilm Eradication Concentration) Physiology and Genetics Assay.
MBEC™ Test Method Overview: MBEC™ test method specifies the operational parameters required to grow and treat different bacterial biofilms in a high throughput screening assay. The assay device consists of a plastic lid with ninety-six (96) pegs and a corresponding receiver plate with ninety-six (96) individual wells that have a maximum 200 μL working volume. Biofilm is established on the pegs in a batch culture based model (i.e., no flow of nutrients into or out of an individual well) with gentle mixing. The established biofilm is transferred to a new receiver plate for disinfectant efficacy testing.
Test Organisms: Staphylococcus aureus (an osteomyelitis-related strains); source: ATCC
29213; Dilution/Challenge Media: 1,000×TSB+10% human serum 24 hrs; Growth Media/agar: Tryptic Soy Broth/Tryptic Soy agar for 24 hrs Aerobic cond.
TEST METHOD overview: The experimental process for high-throughput antimicrobial susceptibility testing using the hydroxyapatite coated MBEC™ P&G assay. This standard protocol was broken into a series of small steps, each of which is detailed in the sections below.
Using a cryogenic stock (at −70° C.), a first sub-culture of Staphylococcus aureus was streaked out on OSA (organism specific agar). The plates were incubated at appropriate growth conditions for 20±2.0 hours and further stored at 4° C.
A second sub-culture taken from the first sub-culture was streaked out on OSA. The plates were incubated at appropriate growth conditions for 20±2.0 hours. An isolated colony from the second sub-culture was aseptically removed from the OSA plate and inoculated into 50 mL of sterile bacterial liquid growth broth, followed by incubation appropriate growth conditions for 20±2.0 hours (at 150 rpm).
The inoculum was adjusted to an approximate cell density of 10^6 CFU/mL.
150 μL of the remaining diluted organism were placed in each of the corresponding wells of an MBEC™ P&G device except the sterility controls (Table 5). The device was placed on an orbital shaker (110 RPM) in a humidified incubator at 37±1° C.
The biofilm formed on the lid of the MBEC device was rinsed by dipping the lid into saline (˜30 seconds) to remove planktonic cells. The lid was then put on top of the challenge plate and incubated on a rotary shaker at 110 rpm at 35±2° C. for 24±2 hours.
After incubation (specified above), planktonic cells were rinsed off the biofilm by dipping the lid into saline (˜20-30 seconds). The lid was then transferred to a neutralizer/recovery plate and put in a sonicator (˜30 minutes) to dislodge surviving biofilm.
Following sonication, 100 μL from each well of the MBEC™ plate, were put into the first 12 empty wells of the first row of a 96 well-micro titer plate and were further diluted by 10 fold down each of the 8 rows (10^0-10^7 dilution). 5 μL from each well were then used for spotting prepared OSA plates. The agar plates were incubated at 37±1° C. and counted after approximately 24-48 hours of incubation. The arithmetic mean of the number of colonies counted on the plates was calculated.
100 μL of the sterile neutralizer was added to each well of the recovery plate to top up the volume back to 200 μL. The refilled plate is incubated at 35±2° C. for 24±2 hours.
Comparator MBEC results were determined following the 24±2 hour incubation using the plate reader.
The log density for one peg was calculated as follows: LOG10(CFU/peg)=LOG10[(X/B)(D)] where: X=mean CFU; B=volume plated (0.02 mL) and D=dilution.
The overall biofilm accumulation was determined by calculating the mean of the log densities calculated.
LOG10 reduction for each dilution was calculated as follows: LOG10 Reduction=Mean LOG10 Growth Control−Mean LOG10 Test Sample.

## Gentamicin
D 0.5
  Log Reduction (Log R) vs. GC (growth control): 1.11
D 0.5 (μg)
  Average Log10 CFU/peg recoveries: 3.48 Log10 CFU/peg
D 1.0
  Log Reduction (Log R) vs. GC (growth control): 1.38
D 1.0 (μg)
  Average Log10 CFU/peg recoveries: 3.21 Log10 CFU/peg
D 2.0
  Log Reduction (Log R) vs. GC (growth control): 2.90
D 2.0 (μg)
  Average Log10 CFU/peg recoveries: 1.69 Log10 CFU/peg
D 4.0
  Log Reduction (Log R) vs. GC (growth control): 3.29
D 4.0 (μg)
  Average Log10 CFU/peg recoveries: 1.31 Log10 CFU/peg
D 8.0
  Log Reduction (Log R) vs. GC (growth control): 4.59
D 8.0 (μg)
  Average Log10 CFU/peg recoveries: 0.00 Log10 CFU/peg
D 16
  Log Reduction (Log R) vs. GC (growth control): 4.59
D 16 (μg)
  Average Log10 CFU/peg recoveries: 0.00 Log10 CFU/peg
D 32
  Log Reduction (Log R) vs. GC (growth control): 4.59
D 32 (μg)
  Average Log10 CFU/peg recoveries: 0.00 Log10 CFU/peg
